# In US20210349099A1, “CANCER BIOMARKERS AND METHODS OF USE THEREOF” (X4 Pharmaceuticals, Inc., priority 2017, published 2021):
# Tests used:
# [1] = Phase 1 and 2a trials; cited from earlier work
# [2] = system: melanoma, renal cell carcinoma, and ovarian cancer; details: murine models; cited from earlier work
# in vivo = assay: in vivo
# Experimental: In certain embodiments, the dosage composition may be provided twice a day in divided dosage, approximately 12 hours apart. In other embodiments, the dosage composition may be provided once daily. […] Dosage for oral administration may be from about 100 mg to about 1200 mg once or twice per day.
# melanoma biopsy samples = assay: VISTA panel staining of melanoma biopsies (CD163, CD206, VISTA, COX-2, CD3, B7H3); type: in vivo, human
# Description: Biopsy samples were obtained at baseline (top row) and at the end of […]-001 monotherapy (bottom row). […] The right column contains higher magnification views of the boxed regions in the center panel.
# Solubility of X4P-001 = type: physicochemical
# [3] = system: melanoma tumor gene signatures; assay: NanoString nCounter gene expression of FFPE melanoma biopsies; type: in vivo, human
# Description: FFPE gene expression analysis: For each gene biomarker, RNA was extracted from FFPE slides using Qiagen's AllPrep kit (Cat. 80234) and analyzed using NanoString nCounter platform with the PanCancer Immune probe set. Raw counts were normalized using the geometric mean of 30 housekeeping genes and the normalized data from both panels were merged and analyzed with nSolver software (Version 4.0).
# Interferon gene signature was based on Ayers et al (JCI 2017) and calculated in the following manner. For each patient (pt) sample, the geometric mean was calculated from the normalized counts for six genes (IFN-γ, CXCL9, CXCL10, HLA-DRA, IDO1, STAT1) and then the mean was Log 10-transformed to generate the Gene Expression score. […] Gene scores were calculated for each patient sample from the geometric mean of normalized counts for IFN-gamma, CXCL9, CXCL10, HLA-DRA, IDO1, and STAT1. The mean was Log 10-transformed to generate the Gene Expression score.
# The tumor inflammatory signature (TIS) was calculated from 18 genes by taking the Log 10 of the geometric mean of the normalized counts across each gene set to generate a “Gene signature score”. See, e.g., Righi E, Kashiwagi S, Yuan J, et al. “CXCL12/CXCR4 Blockade Induces Multimodal Antitumor Effects That Prolong Survival in an Immunocompetent Mouse Model of Ovarian Cancer,” Cancer Res. 2011; 71(16):5522-5534.
# Raw counts were normalized using the geometric mean of housekeeping genes. The Interferon-gamma gene signature score was assessed by a procedure essentially as described in Ayers et al. (2017) J. Clin. Invest. 127:2930-2940.
# To perform the CTL signature measurement, RNA was extracted from FFPE slides using Qiagen's AllPrep kit and analyzed using the NanoString nCounter platform with the PanCancer Immune probe set. Raw counts were normalized using the geometric mean of housekeeping genes. NanoString nCounter validation is described at Malkov et al. (2009) BMC Research Notes; 2:80; accessed Nov. 2, 2017 at https://bmcresnotes.biomedcentral.com/articles/10.1186/1756-0500-2-80; Waggott et al. (2012) Bioinformatics 28:1546-1548; see also nCounter® Analysis System User Manual (July 2015), published by NanoString Technologies®, Inc., accessed Nov. 2, 2017, at https://www.nanostring.com/application/files/7114/8942/6665/MAN-C0035-05_nCounter Analysis_System_GEN2.pdf.
# For each gene biomarker, RNA was extracted from FFPE slides using Qiagen's AllPrep kit (Cat. 80234) and analyzed using NanoString nCounter platform with the PanCancer Immune probe set. Raw counts were normalized using the geometric mean of housekeeping genes, as described above.
# Antigen Presentation/Processing Gene Signature was calculated by taking the geometric mean of the normalized counts for eighteen (18) genes (B2M, CD74, CTSL, CTSS, HLA-DMA, HLA-DMB, HLA-DOB, HLA-DPA1, HLA-DPB1, HLA-DQA1, HLA-DQB1, HLA-DRA, HLA-DRB1, HLA-DRB3, PSMB8, PSMB9, TAP1, and TAP2) and then Log 10-transforming the mean to generate the Gene Expression Score.
# Tumor Inflammation Signature was calculated by taking the geometric mean of the normalized counts for eighteen (18) genes (CCL5, CD27, CD274, CD276, CD8A, CMKLR1, CXCL9, CXCR6, HLA-DQA1, HLA-DRB1, HLA-E, IDO1, LAG3, NKG7, PDCD1LG2, PSMB10, STAT1, and TIGIT) and then Log 10-transforming the mean to generate the Gene Expression Score.
# melanoma tumor interface = assay: Multiplex IHC and HALO count of CD8+ cells at the tumor interface; type: in vivo, human
# Experimental: CD8-labeled cells within […] of the inside or outside of the tumor boundary with normal tissue were counted. The number of CD8^+ cells/mm^2 was plotted against distance from the boundary in […] bands.
# [4] = end of X4P-001 monotherapy vs baseline
# [5] = pre- vs post-dosing, five patients
# [6] = pre- vs post-dosing, patients 2, 3, 5, 8, and 9
smiles,measurement,setting,value
NCCCCN(Cc1nc2ccccc2[nH]1)[C@H]1CCCc2cccnc21 [X4P-001],pharmacodynamic activity: circulating white blood cells (WBCs),[1],dose- and concentration-related changes
same,volume of distribution (VL),[1],high
same,anti-tumor activity,[2],"significant anti-tumor activity, including decreased metastasis and increased overall survival"
same,terminal half-life,in vivo,approximately 14.5 hrs
same,half-life,in vivo; terminal half-life,12 to 24 h
same,COX-2/mm^2,"melanoma biopsy samples; Week 4, ROI Non-Tumor, Day 1 2.07",1.22 /mm^2
same,CD206/mm^2,"melanoma biopsy samples; Week 4, ROI Non-Tumor, Day 1 252.20",199.30 /mm^2
same,CD3/mm^2,"melanoma biopsy samples; Week 4, ROI Non-Tumor, Day 1 400.31",494.97 /mm^2
same,VISTA/mm^2,"melanoma biopsy samples; Week 4, ROI Non-Tumor, Day 1 410.11",144.72 /mm^2
same,CD163/mm^2,"melanoma biopsy samples; Week 4, ROI Non-Tumor, Day 1 514.86",467.25 /mm^2
same,B7H3/mm^2,"melanoma biopsy samples; Week 4, ROI Non-Tumor, Day 1 615.63",980.49 /mm^2
same,Cells/mm^2,"melanoma biopsy samples; Week 4, ROI Non-Tumor, Day 1 2057.63",2217.73 /mm^2
same,COX-2/mm^2,"melanoma biopsy samples; Week 4, ROI Tumor, Day 1 3.40",2.98 /mm^2
same,CD3/mm^2,"melanoma biopsy samples; Week 4, ROI Tumor, Day 1 239.91",1050.68 /mm^2
same,CD206/mm^2,"melanoma biopsy samples; Week 4, ROI Tumor, Day 1 264.79",161.25 /mm^2
same,CD163/mm^2,"melanoma biopsy samples; Week 4, ROI Tumor, Day 1 426.51",661.21 /mm^2
same,VISTA/mm^2,"melanoma biopsy samples; Week 4, ROI Tumor, Day 1 2640.08",852.86 /mm^2
same,B7H3/mm^2,"melanoma biopsy samples; Week 4, ROI Tumor, Day 1 4826.36",3952.27 /mm^2
same,Cells/mm^2,"melanoma biopsy samples; Week 4, ROI Tumor, Day 1 5758.23",5297.64 /mm^2
same,COX-2/mm^2,"melanoma biopsy samples; Week 4, ROI Whole Tissue, Day 1 2.87",1.97 /mm^2
same,CD206/mm^2,"melanoma biopsy samples; Week 4, ROI Whole Tissue, Day 1 259.38",182.26 /mm^2
same,CD3/mm^2,"melanoma biopsy samples; Week 4, ROI Whole Tissue, Day 1 308.53",738.82 /mm^2
same,CD163/mm^2,"melanoma biopsy samples; Week 4, ROI Whole Tissue, Day 1 464.86",552.27 /mm^2
same,VISTA/mm^2,"melanoma biopsy samples; Week 4, ROI Whole Tissue, Day 1 1673.17",457.53 /mm^2
same,B7H3/mm^2,"melanoma biopsy samples; Week 4, ROI Whole Tissue, Day 1 2998.14",2288.84 /mm^2
same,Cells/mm^2,"melanoma biopsy samples; Week 4, ROI Whole Tissue, Day 1 4149.31",3572.93 /mm^2
same,expression of VISTA,melanoma biopsy samples; [4],decreased expression
same,numbers of CD3+ cells within tumor borders,melanoma biopsy samples; [4],increased numbers
same,solubility,"Solubility of X4P-001; aqueous buffer, pH range 3.0 to 8.0 (freely soluble)",> 100 mg/mL
same,solubility in water,Solubility of X4P-001; water,only slightly soluble
same,CD8A expression,[3]; NanoString nCounter,increased
same,CD8B expression,[3]; NanoString nCounter,increased
same,granzyme B expression,[3]; NanoString nCounter,increased
same,"Tumor Inflammation Signature Gene Expression Score, Post-X4P-001 Score","[3]; Patient 2, Pre-Dose Score 2.123, Log 10 of geometric mean of 18 genes",2.225
same,"Antigen Presentation/Processing Gene Expression Score, Post-X4P-001 Score","[3]; Patient 2, Pre-Dose Score 2.94, Log 10 of geometric mean of 18 genes",2.986
same,"Tumor Inflammation Signature Gene Expression Score, Post-X4P-001 Score","[3]; Patient 3, Pre-Dose Score 2.647",2.798
same,"Antigen Presentation/Processing Gene Expression Score, Post-X4P-001 Score","[3]; Patient 3, Pre-Dose Score 3.139",3.324
same,"Tumor Inflammation Signature Gene Expression Score, Post-X4P-001 Score","[3]; Patient 5, Pre-Dose Score 2.871",3.257
same,"Antigen Presentation/Processing Gene Expression Score, Post-X4P-001 Score","[3]; Patient 5, Pre-Dose Score 3.519",3.806
same,"Tumor Inflammation Signature Gene Expression Score, Post-X4P-001 Score","[3]; Patient 8, Pre-Dose Score 2.508",2.834
same,"Antigen Presentation/Processing Gene Expression Score, Post-X4P-001 Score","[3]; Patient 8, Pre-Dose Score 3.134",3.518
same,"Tumor Inflammation Signature Gene Expression Score, Post-X4P-001 Score","[3]; Patient 9, Pre-Dose Score 2.233",2.597
same,"Antigen Presentation/Processing Gene Expression Score, Post-X4P-001 Score","[3]; Patient 9, Pre-Dose Score 3.082",3.495
same,cytotoxic T lymphocyte (CTL) gene signature gene expression score,[3]; [5],increased for each one of the five patients
same,interferon gamma (IFN-γ) gene signature Gene Expression Score,[3]; [5],increased for each one of the five patients
same,"Antigen Presentation/Processing Gene Expression Score, change",[3]; [6],increased for each patient
same,"Tumor Inflammation Signature Gene Expression Score, change",[3]; [6],increased for each patient
same,CD8 Avg. Density,"melanoma tumor interface; Week 4, Day 1 380.0449",1550.5403 cells/mm^2
same,CD8 Within Interface Area,"melanoma tumor interface; Week 4, Day 1 5233",7557
same,CD8 Count,"melanoma tumor interface; Week 4, Day 1 8924",25894
same,total density of CD8+ cells within the boundary area compared with baseline,"melanoma tumor interface; after 3 weeks of monotherapy, within 100 μM of tumor boundary",increased four-fold
